Laboratory results published in PubChem BioAssay (NCI).
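Each compound was tested at five concentrations against cells in 96-well plates for 48 hours. Abbreviation: GI50, concentration required for 50% inhibition of growth. TGI marks complete inhibition of growth.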

Tests used:
Experiment in all cases: DTP human tumour cell line panel, 48 h
UACC-257 melanoma = tested on: UACC-257 melanoma
NCI-H226 lung = tested on: NCI-H226 lung
HS 578T breast = tested on: HS 578T breast
HOP-92 NSCLC = tested on: HOP-92 NSCLC
MDA-MB-231 breast = tested on: MDA-MB-231 breast
HL-60(TB) leukemia = tested on: HL-60(TB) leukemia
MOLT-4 leukemia = tested on: MOLT-4 leukemia
M14 melanoma = tested on: M14 melanoma
RPMI-8226 leukemia = tested on: RPMI-8226 leukemia
HCC-2998 colon = tested on: HCC-2998 colon
LOX IMVI melanoma = tested on: LOX IMVI melanoma
OVCAR-5 ovarian = tested on: OVCAR-5 ovarian
SF-295 CNS = tested on: SF-295 CNS
NCI-H23 lung = tested on: NCI-H23 lung
OVCAR-3 ovarian = tested on: OVCAR-3 ovarian
U251 CNS = tested on: U251 CNS
SN12C renal = tested on: SN12C renal
CAKI-1 renal = tested on: CAKI-1 renal
KM12 colon = tested on: KM12 colon
SW-620 colon = tested on: SW-620 colon
SK-MEL-28 melanoma = tested on: SK-MEL-28 melanoma
MCF7 breast = tested on: MCF7 breast
HCT-116 colon = tested on: HCT-116 colon
UACC-62 melanoma = tested on: UACC-62 melanoma
MDA-MB-435 = tested on: MDA-MB-435
NCI/ADR-RES ovarian = tested on: NCI/ADR-RES ovarian
EKVX NSCLC = tested on: EKVX NSCLC
CCRF-CEM leukemia = tested on: CCRF-CEM leukemia
SF-539 CNS = tested on: SF-539 CNS
HOP-62 NSCLC = tested on: HOP-62 NSCLC
BT-549 breast = tested on: BT-549 breast
786-0 renal = tested on: 786-0 renal
NCI-H460 lung = tested on: NCI-H460 lung
DU-145 prostate = tested on: DU-145 prostate
OVCAR-4 ovarian = tested on: OVCAR-4 ovarian
SNB-19 CNS = tested on: SNB-19 CNS
MALME-3M melanoma = tested on: MALME-3M melanoma
A549 NSCLC = tested on: A549 NSCLC
IGROV1 ovarian = tested on: IGROV1 ovarian
HCT-15 colon = tested on: HCT-15 colon
PC-3 prostate = tested on: PC-3 prostate
SF-268 CNS = tested on: SF-268 CNS
COLO 205 colon = tested on: COLO 205 colon
TK-10 renal = tested on: TK-10 renal
HT29 colon = tested on: HT29 colon
SK-MEL-2 melanoma = tested on: SK-MEL-2 melanoma
K-562 leukemia = tested on: K-562 leukemia
ACHN renal = tested on: ACHN renal
A498 renal = tested on: A498 renal
RXF 393 renal = tested on: RXF 393 renal
T-47D breast = tested on: T-47D breast
UO-31 renal = tested on: UO-31 renal
OVCAR-8 ovarian = tested on: OVCAR-8 ovarian
SK-MEL-5 melanoma = tested on: SK-MEL-5 melanoma
SK-OV-3 ovarian = tested on: SK-OV-3 ovarian
SR leukemia = tested on: SR leukemia
NCI-H522 lung = tested on: NCI-H522 lung
SNB-75 CNS = tested on: SNB-75 CNS

NCCOc1ncccc1/C=C1\c2ccccc2-c2ccc(F)cc21 showed a GI50 (UACC-257 melanoma) of 1660 nM, a TGI (UACC-257 melanoma) of 3340 nM and a GI50 (NCI-H226 lung) of 1000 nM. It also gave a TGI (NCI-H226 lung) of 2530 nM, a GI50 (HS 578T breast) of 1740 nM and a TGI (HS 578T breast) of 5020 nM. The GI50 (HOP-92 NSCLC) was 353 nM, the TGI (HOP-92 NSCLC) was 3190 nM and the GI50 (MDA-MB-231 breast) was 1430 nM. For the same molecule, the TGI (MDA-MB-231 breast) was 2940 nM, the GI50 (HL-60(TB) leukemia) was 340 nM and the TGI (HL-60(TB) leukemia) was 1300 nM. It also gave a GI50 (MOLT-4 leukemia) of 282 nM, a TGI (MOLT-4 leukemia) of 1160 nM and a GI50 (M14 melanoma) of 739 nM. For the same molecule, the TGI (M14 melanoma) was 2260 nM, the GI50 (RPMI-8226 leukemia) was 1470 nM and the TGI (RPMI-8226 leukemia) was 3510 nM. For the same molecule, the GI50 (HCC-2998 colon) was 1340 nM, the TGI (HCC-2998 colon) was 2750 nM and the GI50 (LOX IMVI melanoma) was 598 nM. For the same molecule, the TGI (LOX IMVI melanoma) was 1980 nM, the GI50 (OVCAR-5 ovarian) was 1570 nM and the TGI (OVCAR-5 ovarian) was 3070 nM. For the same molecule, the GI50 (SF-295 CNS) was 462 nM, the TGI (SF-295 CNS) was 1810 nM and the GI50 (NCI-H23 lung) was 631 nM. The TGI (NCI-H23 lung) was 2510 nM, the GI50 (OVCAR-3 ovarian) was 1630 nM and the TGI (OVCAR-3 ovarian) was 3110 nM. The GI50 (U251 CNS) was 525 nM, the TGI (U251 CNS) was 1850 nM and the GI50 (SN12C renal) was 449 nM. It also gave a TGI (SN12C renal) of 1710 nM, a GI50 (CAKI-1 renal) of 461 nM and a TGI (CAKI-1 renal) of 2000 nM. The GI50 (KM12 colon) was 1460 nM, the TGI (KM12 colon) was 2980 nM and the GI50 (SW-620 colon) was 682 nM. It also gave a TGI (SW-620 colon) of 2170 nM, a GI50 (SK-MEL-28 melanoma) of 1620 nM and a TGI (SK-MEL-28 melanoma) of 3040 nM. The GI50 (MCF7 breast) was 379 nM, the TGI (MCF7 breast) was 1680 nM and the GI50 (HCT-116 colon) was 703 nM. It also gave a TGI (HCT-116 colon) of 2120 nM, a GI50 (UACC-62 melanoma) of 1040 nM and a TGI (UACC-62 melanoma) of 2380 nM. The GI50 (MDA-MB-435) was 1550 nM, the TGI (MDA-MB-435) was 2980 nM and the GI50 (NCI/ADR-RES ovarian) was 1240 nM. For the same molecule, the TGI (NCI/ADR-RES ovarian) was 2710 nM, the GI50 (EKVX NSCLC) was 1350 nM and the TGI (EKVX NSCLC) was 3550 nM. It also gave a GI50 (CCRF-CEM leukemia) of 316 nM, a TGI (CCRF-CEM leukemia) of 2390 nM and a GI50 (SF-539 CNS) of 1490 nM. The TGI (SF-539 CNS) was 2870 nM, the GI50 (HOP-62 NSCLC) was 446 nM and the TGI (HOP-62 NSCLC) was 1870 nM. The GI50 (BT-549 breast) was 1640 nM, the TGI (BT-549 breast) was 4480 nM and the GI50 (786-0 renal) was 575 nM. For the same molecule, the TGI (786-0 renal) was 1940 nM, the GI50 (NCI-H460 lung) was 236 nM and the TGI (NCI-H460 lung) was 1370 nM. The GI50 (DU-145 prostate) was 467 nM, the TGI (DU-145 prostate) was 1890 nM and the GI50 (OVCAR-4 ovarian) was 1520 nM. It also gave a TGI (OVCAR-4 ovarian) of 3470 nM, a GI50 (SNB-19 CNS) of 570 nM and a TGI (SNB-19 CNS) of 2580 nM. For the same molecule, the GI50 (MALME-3M melanoma) was 1240 nM, the TGI (MALME-3M melanoma) was 2640 nM and the GI50 (A549 NSCLC) was 311 nM. It also gave a TGI (A549 NSCLC) of 1920 nM, a GI50 (IGROV1 ovarian) of 1160 nM and a TGI (IGROV1 ovarian) of 2470 nM. The GI50 (HCT-15 colon) was 781 nM, the TGI (HCT-15 colon) was 2320 nM and the GI50 (PC-3 prostate) was 1180 nM. For the same molecule, the TGI (PC-3 prostate) was 2620 nM, the GI50 (SF-268 CNS) was 1080 nM and the TGI (SF-268 CNS) was 4100 nM. The GI50 (COLO 205 colon) was 1050 nM, the TGI (COLO 205 colon) was 2310 nM and the GI50 (TK-10 renal) was 1370 nM. It also gave a TGI (TK-10 renal) of 2850 nM, a GI50 (HT29 colon) of 1190 nM and a TGI (HT29 colon) of 2800 nM. The GI50 (SK-MEL-2 melanoma) was 1910 nM, the TGI (SK-MEL-2 melanoma) was 3760 nM and the GI50 (K-562 leukemia) was 994 nM. It also gave a TGI (K-562 leukemia) of 3390 nM, a GI50 (ACHN renal) of 349 nM and a TGI (ACHN renal) of 1370 nM. The GI50 (A498 renal) was 1610 nM, the TGI (A498 renal) was 4770 nM and the GI50 (RXF 393 renal) was 1600 nM. For the same molecule, the TGI (RXF 393 renal) was 3660 nM, the GI50 (T-47D breast) was 687 nM and the TGI (T-47D breast) was 2740 nM. For the same molecule, the GI50 (UO-31 renal) was 1120 nM, the TGI (UO-31 renal) was 2340 nM and the GI50 (OVCAR-8 ovarian) was 1080 nM. The TGI (OVCAR-8 ovarian) was 2750 nM, the GI50 (SK-MEL-5 melanoma) was 1360 nM and the TGI (SK-MEL-5 melanoma) was 2680 nM. It also gave a GI50 (SK-OV-3 ovarian) of 1240 nM, a TGI (SK-OV-3 ovarian) of 2910 nM and a GI50 (SR leukemia) of 116 nM. The TGI (SR leukemia) was 2940 nM, the GI50 (NCI-H522 lung) was 1130 nM and the TGI (NCI-H522 lung) was 2760 nM. For the same molecule, the GI50 (SNB-75 CNS) was 1100 nM and the TGI (SNB-75 CNS) was 3260 nM.
